Results on 15 compounds are retold here after US12187746B2, “C26-linked rapamycin analogs as mTOR inhibitors” (Revolution Medicines, Inc., priority 2018, dated 2025).

Experiment [1] deals with P-P70S6K (T389). Nature of the experiment: Cell based AlphaLISA assay, inhibition of P-P70S6K (T389) in MDA-MB-468 cells. The note with it: Homo sapiens, 4 h, 0.017-1,000 nM, two to four hours at 37° C., AlphaLisa SureFire Ultra, read-out: pIC50 for Inhibition of mTORC1 and mTORC2 Substrate Phosphorylation, p-P70S6K-(T389) (converted). Here is the method: (§1) Cell Based AlphaLISA Assays For Determining IC50 For Inhibition of P-Akt (S473), P-4E-BP1 (T37/46), and P-P70S6K (T389) in MDA-MB-468 Cells
(§2) mTOR Kinase Cellular Assay
(§3) To measure functional activity of mTORC1 and mTORC2 in cells the phosphorylation of 4EBP1 (Thr37/46) and P70S6K (Thr389), and AKT1/2/3 (Ser473) was monitored using AlphaLisa SureFire Ultra Kits (Perkin Elmer). […] Incubations are terminated by removal of the assay buffer and addition of lysis buffer provided with the assay kit. Samples are processed according to the manufacturer's instructions. The Alpha signal from the respective phosphoproteins is measured in duplicate using a microplate reader (Envision, Perkin-Elmer or Spectramax M5, Molecular Devices). Inhibitor concentration response curves are analyzed using normalized IC50 regression curve fitting with control based normalization.
For orientation: Bead proximity is the source of the signal in Alpha formats.

In experiment [2] the test system is P-4E-BP1 (T37/46). Put plainly: Cell based AlphaLISA assay, inhibition of P-4E-BP1 (T37/46) in MDA-MB-468 cells. Particulars: Homo sapiens, 4 h, 0.017-1,000 nM, two to four hours at 37° C., AlphaLisa SureFire Ultra, read-out: pIC50 for Inhibition of mTORC1 and mTORC2 Substrate Phosphorylation, p-4E-BP1-(T37/46) (converted). The method, then:
as §1, §2, §3

Experiment [3] concerns P-Akt (S473). Put plainly: Cell based AlphaLISA assay, inhibition of P-Akt (S473) in MDA-MB-468 cells. Particulars: Homo sapiens, 4 h, 0.017-1,000 nM, two to four hours at 37° C., AlphaLisa SureFire Ultra, read-out: pIC50 for Inhibition of mTORC1 and mTORC2 Substrate Phosphorylation, p-AKT1/2/3-(S473) (converted). Here is the method:
as §1, §2, §3

Some results are limits rather than exact numbers.

Turning to `CO[C@H]1C[C@@H]2CC[C@@H](C)[C@@](O)(O2)C(=O)C(=O)N2CCCC[C@H]2C(=O)O[C@H]([C@H](C)C[C@@H]2CC[C@@H](O)[C@H](OC)C2)C[C@@H](O)[C@H](C)/C=C(\C)[C@@H](O)[C@@H](OC)C(=NOCC(=O)NCCOCCOCCOCCOCCOCCOCCOCCOCCC(=O)NCCCCn2nc(-c3ccc4oc(N)nc4c3)c3c(N)ncnc32)[C@H](C)C[C@H](C)/C=C/C=C/C=C/1C` [Example 1], the IC50 in experiment [1] was 1 to 10 nM; in experiment [2], 3.16 to 31.6 nM; in experiment [3], 31.6 to 1000 nM.

In the case of `CO[C@H]1C[C@@H]2CC[C@@H](C)[C@@](O)(O2)C(=O)C(=O)N2CCCC[C@H]2C(=O)O[C@H]([C@H](C)C[C@@H]2CC[C@@H](O)[C@H](OC)C2)C[C@@H](O)[C@H](C)/C=C(\C)[C@@H](O)[C@@H](OC)C(=NOCC(=O)NCCOCCOCCOCCOCCOCCOCCC(=O)NCCCCn2nc(-c3ccc4oc(N)nc4c3)c3c(N)ncnc32)[C@H](C)C[C@H](C)/C=C/C=C/C=C/1C` [Example 2], the IC50 in experiment [1] is less than 1 nM; in experiment [2] it was 3.16 to 31.6 nM; in experiment [3], 31.6 to 1000 nM.

As for `CO[C@H]1C[C@@H]2CC[C@@H](C)[C@@](O)(O2)C(=O)C(=O)N2CCCC[C@H]2C(=O)O[C@H]([C@H](C)C[C@@H]2CC[C@@H](O)[C@H](OC)C2)C[C@@H](O)[C@H](C)/C=C(\C)[C@@H](O)[C@@H](OC)/C(=N/OCC(=O)NCCOCCOCCOCCOCCOCCOCCC(=O)NCCCCn2nc(-c3ccc4oc(N)nc4c3)c3c(N)ncnc32)[C@H](C)C[C@H](C)/C=C/C=C/C=C/1C` [Example 3], the IC50 was less than 1 nM in experiment [1], 3.16 to 31.6 nM in experiment [2] and 31.6 to 1000 nM in experiment [3].

`CO[C@H]1C[C@@H]2CC[C@@H](C)[C@@](O)(O2)C(=O)C(=O)N2CCCC[C@H]2C(=O)O[C@H]([C@H](C)C[C@@H]2CC[C@@H](O)[C@H](OC)C2)C[C@@H](O)[C@H](C)/C=C(\C)[C@@H](O)[C@@H](OC)C(=NOCC(=O)NCCOCCOCCOCCOCCOCCOCCOCCOCCC(=O)N2CCc3cc(Cn4nc(-c5ccc6oc(N)nc6c5)c5c(N)ncnc54)ccc3C2)[C@H](C)C[C@H](C)/C=C/C=C/C=C/1C` [Example 4]: the IC50 in experiment [1] was less than 1 nM; in experiment [2], 3.16 to 31.6 nM; in experiment [3], 31.6 to 1000 nM.

As for `CO[C@H]1C[C@@H]2CC[C@@H](C)[C@@](O)(O2)C(=O)C(=O)N2CCCC[C@H]2C(=O)O[C@H]([C@H](C)C[C@@H]2CC[C@@H](O)[C@H](OC)C2)C[C@@H](O)[C@H](C)/C=C(\C)[C@@H](O)[C@@H](OC)C(=NOCC(=O)NCCOCCOCCOCCOCCOCCOCCC(=O)N2CCc3cc(Cn4nc(-c5ccc6oc(N)nc6c5)c5c(N)ncnc54)ccc3C2)[C@H](C)C[C@H](C)/C=C/C=C/C=C/1C` [Example 5], the values for the IC50 in experiment [1], in experiment [2] and in experiment [3] were less than 1 nM, less than 3.16 nM and 31.6 to 1000 nM, respectively.

As for `CO[C@H]1C[C@@H]2CC[C@@H](C)[C@@](O)(O2)C(=O)C(=O)N2CCCC[C@H]2C(=O)O[C@H]([C@H](C)C[C@@H]2CC[C@@H](O)[C@H](OC)C2)C[C@@H](O)[C@H](C)/C=C(\C)[C@@H](O)[C@@H](OC)C(=NOCC(=O)NCCOCCOCCOCCOCCOCCOCCOCCOCCC(=O)NCCCCn2nc(-c3cnc4[nH]ccc4c3)c3c(N)ncnc32)[C@H](C)C[C@H](C)/C=C/C=C/C=C/1C` [Example 6], the IC50 in experiment [1] was 1 to 10 nM; in experiment [2] it was 3.16 to 31.6 nM; in experiment [3], greater than 1000 nM.

In the case of `CO[C@H]1C[C@@H]2CC[C@@H](C)[C@@](O)(O2)C(=O)C(=O)N2CCCC[C@H]2C(=O)O[C@H]([C@H](C)C[C@@H]2CC[C@@H](O)[C@H](OC)C2)C[C@@H](O)[C@H](C)/C=C(\C)[C@@H](O)[C@@H](OC)C(=NOCC(=O)NCCOCCOCCOCCOCCOCCOCCC(=O)NCCCCn2nc(-c3cnc4[nH]ccc4c3)c3c(N)ncnc32)[C@H](C)C[C@H](C)/C=C/C=C/C=C/1C` [Example 7], the IC50 is less than 1 nM in experiment [1], 3.16 to 31.6 nM in experiment [2] and greater than 1000 nM in experiment [3].

Consider `CO[C@H]1C[C@@H]2CC[C@@H](C)[C@@](O)(O2)C(=O)C(=O)N2CCCC[C@H]2C(=O)O[C@H]([C@H](C)C[C@@H]2CC[C@@H](O)[C@H](OC)C2)C[C@@H](OC)[C@H](C)/C=C(\C)[C@@H](O)[C@@H](OC)C(=NOCC(=O)NCCOCCOCCOCCOCCOCCOCCOCCOCCC(=O)NCCCCn2nc(-c3cnc4[nH]ccc4c3)c3c(N)ncnc32)[C@H](C)C[C@H](C)/C=C/C=C/C=C/1C` [Example 8], for which the figures for the IC50 in experiment [1], in experiment [2] and in experiment [3] were less than 1 nM, 3.16 to 31.6 nM and greater than 1000 nM, respectively.

With `CO[C@H]1C[C@@H]2CC[C@@H](C)[C@@](O)(O2)C(=O)C(=O)N2CCCC[C@H]2C(=O)O[C@H]([C@H](C)C[C@@H]2CC[C@@H](O)[C@H](OC)C2)C[C@@H](O)[C@H](C)/C=C(\C)[C@@H](O)[C@@H](OC)C(=NOCC(=O)NCCOCCOCCOCCOCCOCCOCCOCCOCCC(=O)N2CCc3cc(Cn4nc(-c5cnc6[nH]ccc6c5)c5c(N)ncnc54)ccc3C2)[C@H](C)C[C@H](C)/C=C/C=C/C=C/1C` [Example 9], the values for the IC50 in experiment [1], in experiment [2] and in experiment [3] were 1 to 10 nM, 3.16 to 31.6 nM and greater than 1000 nM, respectively.

`CO[C@H]1C[C@@H]2CC[C@@H](C)[C@@](O)(O2)C(=O)C(=O)N2CCCC[C@H]2C(=O)O[C@H]([C@H](C)C[C@@H]2CC[C@@H](O)[C@H](OC)C2)C[C@@H](OC)[C@H](C)/C=C(\C)[C@@H](O)[C@@H](OC)C(=NOCC(=O)NCCOCCOCCOCCOCCOCCOCCOCCOCCC(=O)N2CCc3cc(Cn4nc(-c5cnc6[nH]ccc6c5)c5c(N)ncnc54)ccc3C2)[C@H](C)C[C@H](C)/C=C/C=C/C=C/1C` [Example 11]: the IC50 was 1 to 10 nM in experiment [1], 3.16 to 31.6 nM in experiment [2] and greater than 1000 nM in experiment [3].

With `COc1ccc(-c2ccc3ncc4c(c3c2)n(-c2ccc(N3CCN(C(=O)CCOCCOCCOCCOCCOCCOCCNC(=O)CON=C5[C@H](C)C[C@H](C)/C=C/C=C/C=C(\C)[C@@H](OC)C[C@@H]6CC[C@@H](C)[C@@](O)(O6)C(=O)C(=O)N6CCCC[C@H]6C(=O)O[C@H]([C@H](C)C[C@@H]6CC[C@@H](O)[C@H](OC)C6)C[C@@H](O)[C@H](C)/C=C(\C)[C@@H](O)[C@H]5OC)CC3)c(C(F)(F)F)c2)c(=O)n4C)cn1` [Example 13], the IC50 was less than 1 nM in experiment [1], less than 3.16 nM in experiment [2] and 3.16 to 31.6 nM in experiment [3].

As to `COc1ccc(-c2ccc3ncc4c(c3c2)n(-c2ccc(N3CCN(c5ncc(CNC(=O)CCOCCOCCOCCOCCOCCOCCNC(=O)CON=C6[C@H](C)C[C@H](C)/C=C/C=C/C=C(\C)[C@@H](OC)C[C@@H]7CC[C@@H](C)[C@@](O)(O7)C(=O)C(=O)N7CCCC[C@H]7C(=O)O[C@H]([C@H](C)C[C@@H]7CC[C@@H](O)[C@H](OC)C7)C[C@@H](O)[C@H](C)/C=C(\C)[C@@H](O)[C@H]6OC)cn5)CC3)c(C(F)(F)F)c2)c(=O)n4C)cn1` [Example 14], the IC50 in experiment [1] is less than 1 nM; in experiment [2], 3.16 to 31.6 nM; in experiment [3], 31.6 to 1000 nM.

Regarding `CO[C@H]1C[C@@H]2CC[C@@H](C)[C@@](O)(O2)C(=O)C(=O)N2CCCC[C@H]2C(=O)O[C@H]([C@H](C)C[C@@H]2CC[C@@H](O)[C@H](OC)C2)C[C@@H](O)[C@H](C)/C=C(\C)[C@@H](O)[C@@H](OC)C(=NOCC(=O)N2CCc3nc(N4CCN(c5ncc(C(=O)NCCOCCOCCOCCC(=O)NCCCCn6nc(-c7ccc8oc(N)nc8c7)c7c(N)ncnc76)cn5)CC4)ncc3C2)[C@H](C)C[C@H](C)/C=C/C=C/C=C/1C` [Example 15], the IC50 is 1 to 10 nM in experiment [1], 3.16 to 31.6 nM in experiment [2] and 31.6 to 1000 nM in experiment [3].

As to `CO[C@H]1C[C@@H]2CC[C@@H](C)[C@@](O)(O2)C(=O)C(=O)N2CCCC[C@H]2C(=O)O[C@H]([C@H](C)C[C@@H]2CC[C@@H](O)[C@H](OC)C2)C[C@@H](O)[C@H](C)/C=C(\C)[C@@H](O)[C@@H](OC)C(=NOCC(=O)N2CCc3nc(N4CCN(c5ncc(C(=O)NCCOCCOCCC(=O)NCCCCn6nc(-c7ccc8oc(N)nc8c7)c7c(N)ncnc76)cn5)CC4)ncc3C2)[C@H](C)C[C@H](C)/C=C/C=C/C=C/1C` [Example 16], the figures for the IC50 in experiment [1], in experiment [2] and in experiment [3] were 1 to 10 nM, 3.16 to 31.6 nM and greater than 1000 nM, respectively.

In the case of `CO[C@H]1C[C@@H]2CC[C@@H](C)[C@@](O)(O2)C(=O)C(=O)N2CCCC[C@H]2C(=O)O[C@H]([C@H](C)C[C@@H]2CC[C@@H](O)[C@H](OC)C2)C[C@@H](O)[C@H](C)/C=C(\C)[C@@H](O)[C@@H](OC)C(=NOCC(=O)N2CCc3nc(N4CCN(c5ncc(C(=O)NCCOCCC(=O)NCCCCn6nc(-c7ccc8oc(N)nc8c7)c7c(N)ncnc76)cn5)CC4)ncc3C2)[C@H](C)C[C@H](C)/C=C/C=C/C=C/1C` [Example 17], the IC50 in experiment [1] was 1 to 10 nM; in experiment [2], 3.16 to 31.6 nM; in experiment [3] it was greater than 1000 nM.
